Data published in US9447091B2, “Protein kinase inhibitors” (Orion Corporation, priority 2011, dated 2016).
pIC50: −log10 of the molar value.

Columns and labels:
c-Met kinase = c-Met kinase (Homo sapiens (Human), UniProt P08581); assay: c-Met TR-FRET kinase assay; format: biochemical; details: 1000 nM compound
Description: Compounds were screened in the TR-FRET assay with c-Met kinase. 0.1 ng of c-Met [expressed in-house] kinase was used for assay. The compound was incubated with the kinase for 60 min at RT. After the incubation, substrate mix [40 nM Ultra light poly GT (Perkin Elmer, USA) and 10 μM ATP (Sigma)] was added. The above reaction was stopped by the addition of 40 mM EDTA after the 30 min kinase reaction. The Eu-labelled antiphospho-tyrosine antibody [Perkin Elmer, USA] was added at 0.5 nM and the fluorescence emission at 615 nm/665 nm [excitation at 340 nm] was measured. The compounds were initially screened at 100 nM and 1 μM concentrations. The compounds with >50% inhibition at 100 nM of c-Met were taken for the full dose response studies. The final DMSO concentration in the assay was 1%. For IC50 determination, ⅓rd serial dilution was made from the 20 mM DMSO stock solution. 2 μl of these were transferred to the test wells containing 20 μl reaction mixture [total reaction volume 20 μl]. The fluorescence was measured in Perkin Elmer Wallac 1420 Multilabel Counter Victor 3. The IC50 was determined by fitting the dose response data to sigmoidal curve fitting equation using GraphPad Prism software V5.

FGFR1 kinase = FGFR1 kinase (Homo sapiens (Human), UniProt P11362); assay: FGFR1 TR-FRET kinase assay; format: biochemical; details: for inhibition at 1 µM: 1000 nM compound; for pIC50: 13 μM ATP, read-out: IC50 of FGFR1 inhibition
Chain of FGFR1 kinase (P11362 22-822): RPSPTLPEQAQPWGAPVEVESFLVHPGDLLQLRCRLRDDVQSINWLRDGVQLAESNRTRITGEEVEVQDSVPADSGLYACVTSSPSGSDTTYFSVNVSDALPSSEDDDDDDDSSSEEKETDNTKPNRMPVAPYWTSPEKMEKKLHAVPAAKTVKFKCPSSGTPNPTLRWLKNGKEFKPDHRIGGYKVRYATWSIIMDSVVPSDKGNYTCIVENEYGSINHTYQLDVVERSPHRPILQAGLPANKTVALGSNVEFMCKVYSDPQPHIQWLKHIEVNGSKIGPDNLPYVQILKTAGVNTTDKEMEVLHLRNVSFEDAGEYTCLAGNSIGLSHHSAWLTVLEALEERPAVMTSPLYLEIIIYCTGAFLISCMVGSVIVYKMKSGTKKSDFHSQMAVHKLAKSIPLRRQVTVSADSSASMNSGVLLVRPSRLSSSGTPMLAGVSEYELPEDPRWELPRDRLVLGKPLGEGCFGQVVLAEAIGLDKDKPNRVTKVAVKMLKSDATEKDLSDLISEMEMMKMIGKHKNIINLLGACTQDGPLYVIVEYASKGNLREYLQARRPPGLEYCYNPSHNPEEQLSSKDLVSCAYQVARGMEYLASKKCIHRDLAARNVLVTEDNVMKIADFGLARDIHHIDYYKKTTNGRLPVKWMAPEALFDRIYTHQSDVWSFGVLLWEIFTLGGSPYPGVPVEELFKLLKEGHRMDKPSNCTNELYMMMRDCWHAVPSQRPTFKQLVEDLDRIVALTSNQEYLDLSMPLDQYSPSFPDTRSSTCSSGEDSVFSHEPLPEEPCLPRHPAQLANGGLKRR
Description: Compounds were screened in the TR-FRET assay with FGFR1 kinase. 5 ng of FGFR1 [Upstate, USA] kinase was used for assay. The compound was incubated with the kinase for 30 minutes at RT. After the incubation, substrate mix [40 nM Ultra light poly GT (Perkin Elmer, USA) and 13 μM ATP (Sigma)] was added. The above reaction was stopped by the addition of 40 mM EDTA after the […] kinase reaction. The Eu-labelled antiphospho-tyrosine antibody [Perkin Elmer, USA] was added at 0.5 nM and the fluorescence emission at 615 nm/665 nm [excitation at 340 nm] was measured. The compounds were initially screened at 100 nM and 1 μM concentrations. The compounds with >50% inhibition at 100 nM of FGFR1 were taken for the full dose response studies. The final DMSO concentration in the assay was 1%. For IC50 determination, ⅓^rd serial dilution was made from the 20 mM DMSO stock solution. 2 μl of these were transferred to the test wells containing 20 μl of the reaction mixture [total reaction volume 20 μl]. The fluorescence was measured in Perkin Elmer Wallac 1420 Multilabel Counter Victor 3. The IC50 was determined by fitting the dose response data to sigmoidal curve fitting equation using GraphPad Prism software V5.

Chain of c-Met kinase (P08581 25-1390): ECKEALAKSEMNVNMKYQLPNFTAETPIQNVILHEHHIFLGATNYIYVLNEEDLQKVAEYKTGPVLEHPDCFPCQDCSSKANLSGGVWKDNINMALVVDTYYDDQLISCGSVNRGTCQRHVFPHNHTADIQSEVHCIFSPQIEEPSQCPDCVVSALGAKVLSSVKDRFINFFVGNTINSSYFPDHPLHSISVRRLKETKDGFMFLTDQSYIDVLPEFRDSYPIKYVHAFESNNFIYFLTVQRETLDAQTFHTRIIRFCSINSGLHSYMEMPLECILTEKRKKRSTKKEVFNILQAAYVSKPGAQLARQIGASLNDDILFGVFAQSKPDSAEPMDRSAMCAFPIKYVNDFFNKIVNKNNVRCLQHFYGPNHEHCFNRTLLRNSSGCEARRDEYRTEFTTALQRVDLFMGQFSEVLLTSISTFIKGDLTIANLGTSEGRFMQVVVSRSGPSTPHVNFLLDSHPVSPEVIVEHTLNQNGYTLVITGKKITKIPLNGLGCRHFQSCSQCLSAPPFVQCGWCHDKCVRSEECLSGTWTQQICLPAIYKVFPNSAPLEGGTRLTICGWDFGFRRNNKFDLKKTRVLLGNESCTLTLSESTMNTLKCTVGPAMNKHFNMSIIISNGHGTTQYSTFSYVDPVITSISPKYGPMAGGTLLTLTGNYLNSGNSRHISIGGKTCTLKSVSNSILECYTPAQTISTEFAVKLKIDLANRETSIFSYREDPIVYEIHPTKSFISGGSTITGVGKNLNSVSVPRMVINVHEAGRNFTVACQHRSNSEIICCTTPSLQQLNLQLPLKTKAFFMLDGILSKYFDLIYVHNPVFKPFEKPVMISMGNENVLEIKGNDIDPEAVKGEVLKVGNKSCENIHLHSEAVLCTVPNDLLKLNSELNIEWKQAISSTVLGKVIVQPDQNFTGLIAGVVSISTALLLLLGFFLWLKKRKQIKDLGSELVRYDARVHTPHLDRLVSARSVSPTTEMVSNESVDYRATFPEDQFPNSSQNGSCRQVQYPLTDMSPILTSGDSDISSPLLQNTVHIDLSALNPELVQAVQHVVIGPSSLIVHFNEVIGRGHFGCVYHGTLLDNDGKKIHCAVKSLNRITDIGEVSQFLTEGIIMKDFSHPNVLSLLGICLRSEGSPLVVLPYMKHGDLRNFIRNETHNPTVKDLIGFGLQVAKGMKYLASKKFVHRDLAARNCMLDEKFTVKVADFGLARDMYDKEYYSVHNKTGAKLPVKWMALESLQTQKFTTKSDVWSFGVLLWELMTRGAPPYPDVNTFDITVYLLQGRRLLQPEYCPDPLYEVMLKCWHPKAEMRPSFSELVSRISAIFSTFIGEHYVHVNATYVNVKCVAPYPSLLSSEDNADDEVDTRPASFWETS

| Structure (SMILES) | inhibition at 1 µM (c-Met kinase) [%] | inhibition at 1 µM (FGFR1 kinase) [%] | pIC50 (FGFR1 kinase) |
| --- | --- | --- | --- |
| CCS(=O)(=O)Nc1cc(-c2ccc(F)cc2F)cc(-n2cnc3cc(-c4cnn(C)c4)cnc32)c1 [Example 133, N-(2′,4′-difluoro-5-(6-(1-methyl-1H-pyrazol-4-yl)-3H-imidazo[4,5-b]pyridin-3-yl)biphenyl-3-yl)ethanesulfonamide] | 0 | 97 | 7.85 |
| Cn1cc(-c2cnc3c(c2)ncn3-c2cc(NS(=O)(=O)c3ccccc3)cc(-c3ccc(F)cc3F)c2)cn1 [Example 134, N-(2′,4′-difluoro-5-(6-(1-methyl-1H-pyrazol-4-yl)-3H-imidazo[4,5-b]pyridin-3-yl)biphenyl-3-yl)benzenesulfonamide] | 0 | 92 | 7.01 |
| CC(C)S(=O)(=O)Nc1cc(-c2cc(F)ccc2F)cc(-n2cnc3cc(-c4cnn(CCN5CCOCC5)c4)ccc32)c1 [Example 142, N-(2′,5′-difluoro-5-(5-(1-(2-morpholinoethyl)-1H-pyrazol-4-yl)-1H-benzo[d]-imidazol-1-yl)biphenyl-3-yl)propane-2-sulfonamide] | 0 | 91 | 7.32 |
| CC(=O)Nc1cc(-c2c(F)cccc2F)cc(-n2cnc3cc(-n4cccn4)ccc32)c1 [Example 152, N-(5-(5-(1H-pyrazol-1-yl)-1H-benzo[d]imidazol-1-yl)-2′,6′-difluorobiphenyl-3-yl)acetamide] | 0 | 79 | 8.14 |
| CC(=O)Nc1cc(-n2cncn2)cc(-n2cnc3cc(-c4cnn(C)c4)ccc32)c1 [Example 155, N-(3-(5-(1-methyl-1H-pyrazol-4-yl)-1H-benzo[d]imidazol-1-yl)-5-(1H-1,2,4-triazol-1-yl)phenyl)acetamide] | 1 | 89 | 7.21 |
| COc1ccc(-c2cc(NC(C)=O)cc(-n3cnc4cc(-c5cnn(C)c5)ccc43)c2)cn1 [Example 158, N-(3-(6-methoxypyridin-3-yl)-5-(5-(1-methyl-1H-pyrazol-4-yl)-1H-benzo[d]-imidazol-1-yl)phenyl)acetamide] | 12 | 95 | 7.66 |
